# In ChEMBL document CHEMBL3217499, “Membrane disrupting antimicrobial peptide dendrimers with multiple amino termini” (Medchemcomm, 2012):
# Where a SMILES comes first, the peptide text is derived from it. Bridges are numbered along the chain shown (N, C = ends). Roman numbers before positions name the chains, in order. Side-chain parts run from the residue outwards. [ ]: non-standard residue; d: D form. The star is where a group is joined. LeuLys(Leu) = CC(C)C[C@H](N)C(=O)NCCCC[C@H](NC(=O)[C@@H](N)CC(C)C)C(=O)*; X2 = CC[C@H](C)[C@H](N)C(=O)NCCCC[C@H](NC(=O)[C@@H](N)[C@@H](C)CC)C(=O)*; X1 = CC(C)C[C@H](N)C(=O)NC[C@H](NC(=O)[C@@H](N)CC(C)C)C(=O)*; Dap = NC[C@H](N)C(=O)O
# How the values were obtained:
# Pseudomonas aeruginosa [1] = assay: Antibacterial activity against Pseudomonas aeruginosa PAO1 after 18 to 24 hrs by broth microdilution assay; type: functional
# Pseudomonas aeruginosa [2] = assay: Antibacterial activity against Pseudomonas aeruginosa K799/WT by broth microdilution assay; type: functional
# Staphylococcus aureus [3] = assay: Antibacterial activity against methicillin-resistant Staphylococcus aureus 42080 by broth microdilution assay; type: functional
# Enterococcus faecalis [4] = assay: Antibacterial activity against Enterococcus faecalis Van BE80-8 by broth microdilution assay; type: functional
# Bacillus subtilis = assay: Antibacterial activity against Bacillus subtilis BR151 after 18 to 24 hrs by broth microdilution assay; type: functional
# Escherichia coli [5] = assay: Antibacterial activity against Escherichia coli ATCC 25922 by broth microdilution assay; type: functional
# Pseudomonas aeruginosa [6] = assay: Antibacterial activity against Pseudomonas aeruginosa 8S/H by broth microdilution assay; type: functional
# Pseudomonas aeruginosa [7] = assay: Antibacterial activity against Pseudomonas aeruginosa K799/61 by broth microdilution assay; type: functional
# Escherichia coli [8] = assay: Antibacterial activity against Escherichia coli DH5[alpha] after 18 to 24 hrs by broth microdilution assay; type: functional
# Pseudomonas aeruginosa [9] = assay: Antibacterial activity against Pseudomonas aeruginosa ATCC 27853 by broth microdilution assay; type: functional
# Staphylococcus aureus [10] = assay: Antibacterial activity against Staphylococcus aureus ATCC 29213 by broth microdilution assay; type: functional
# Enterococcus faecalis [11] = assay: Antibacterial activity against Enterococcus faecalis ATCC 29212 by broth microdilution assay; type: functional
# [12] = Hemolytic activity in human RBC after 4 hrs; type: ADME, cell-based; settings: erythrocyte
# Pseudomonas aeruginosa [13] = assay: Antibacterial activity against Pseudomonas aeruginosa PAO1 HS by broth microdilution assay; type: functional
# Enterococcus faecium [14] = assay: Antibacterial activity against Enterococcus faecium ATCC 19434 by broth microdilution assay; type: functional
# Staphylococcus aureus [15] = assay: Antibacterial activity against Staphylococcus aureus ATCC 25923 by broth microdilution assay; type: functional
# Staphylococcus aureus [16] = assay: Antibacterial activity against Staphylococcus aureus 887 by broth microdilution assay; type: functional
# [17] = system: Staphylococcus epidermidis; assay: Antibacterial activity against Staphylococcus epidermidis J147 by broth microdilution assay; type: functional
# Escherichia coli [18] = assay: Antibacterial activity against Escherichia coli HB101 (PAT 266) by broth microdilution assay; type: functional
# Escherichia coli [19] = assay: Antibacterial activity against Escherichia coli DC2 by broth microdilution assay; type: functional
# Enterococcus faecium [20] = assay: Antibacterial activity against Enterococcus faecium Van BE38-10 by broth microdilution assay; type: functional
# [21] = system: Staphylococcus epidermidis; assay: Antibacterial activity against Staphylococcus epidermidis ATCC 14990 by broth microdilution assay; type: functional
SMILES,MIC (Pseudomonas aeruginosa [1]),MIC (Pseudomonas aeruginosa [2]),MIC (Staphylococcus aureus [3]),MIC (Enterococcus faecalis [4]),MIC (Bacillus subtilis),MIC (Escherichia coli [5]),MIC (Pseudomonas aeruginosa [6]),MIC (Pseudomonas aeruginosa [7]),MIC (Escherichia coli [8]),MIC (Pseudomonas aeruginosa [9]),MIC (Staphylococcus aureus [10]),MIC (Enterococcus faecalis [11]),MHC [12],MIC (Pseudomonas aeruginosa [13]),MIC (Enterococcus faecium [14]),MIC (Staphylococcus aureus [15]),MIC (Staphylococcus aureus [16]),MIC [17],MIC (Escherichia coli [18]),MIC (Escherichia coli [19]),further results
CC[C@H](C)[C@H](N)C(=O)NCCCC[C@H](NC(=O)[C@@H](N)[C@@H](C)CC)C(=O)N[C@@H](Cc1ccccc1)C(=O)NCCCC[C@H](NC(=O)[C@H](Cc1ccccc1)NC(=O)[C@H](CCCCNC(=O)[C@@H](N)[C@@H](C)CC)NC(=O)[C@@H](N)[C@@H](C)CC)C(=O)N1CCC[C@H]1C(=O)NCCCC[C@H](NC(=O)[C@@H]1CCCN1C(=O)[C@H](CCCCNC(=O)[C@H](Cc1ccccc1)NC(=O)[C@H](CCCCNC(=O)[C@@H](N)[C@@H](C)CC)NC(=O)[C@@H](N)[C@@H](C)CC)NC(=O)[C@H](Cc1ccccc1)NC(=O)[C@H](CCCCNC(=O)[C@@H](N)[C@@H](C)CC)NC(=O)[C@@H](N)[C@@H](C)CC)C(=O)N[C@@H](CCCCN)C(N)=O (I: H-IK(Ile)FK([Phe-X2])PKK-NH2 / II: H-IK(Ile)FK([Phe-X2])P; amide I:6-II:C),61 µg/mL,> 32 µg/mL,> 32 µg/mL,> 32 µg/mL,2.5 µg/mL,> 32 µg/mL,> 32 µg/mL,> 32 µg/mL,18 µg/mL,> 32 µg/mL,> 32 µg/mL,> 32 µg/mL,> 10000 µg/mL,> 32 µg/mL,–,–,–,–,–,–,–
CC[C@H](C)[C@H](N)C(=O)NCCCC[C@H](NC(=O)[C@@H](N)[C@@H](C)CC)C(=O)N[C@H](C(=O)NCCCC[C@H](NC(=O)[C@@H](NC(=O)[C@H](CCCCNC(=O)[C@@H](N)[C@@H](C)CC)NC(=O)[C@@H](N)[C@@H](C)CC)[C@@H](C)CC)C(=O)N[C@@H](Cc1ccccc1)C(=O)NCCCC[C@H](NC(=O)[C@H](Cc1ccccc1)NC(=O)[C@H](CCCCNC(=O)[C@@H](NC(=O)[C@H](CCCCNC(=O)[C@@H](N)[C@@H](C)CC)NC(=O)[C@@H](N)[C@@H](C)CC)[C@@H](C)CC)NC(=O)[C@@H](NC(=O)[C@H](CCCCNC(=O)[C@@H](N)[C@@H](C)CC)NC(=O)[C@@H](N)[C@@H](C)CC)[C@@H](C)CC)C(=O)N[C@@H](CCCCN)C(N)=O)[C@@H](C)CC (I: H-IK(Ile)IK([Ile-X2])FKK-NH2 / II: H-IK(Ile)IK([Ile-X2])F; amide I:6-II:C),> 100 µg/mL,> 32 µg/mL,> 32 µg/mL,> 32 µg/mL,4.4 µg/mL,> 32 µg/mL,> 32 µg/mL,> 32 µg/mL,79 µg/mL,> 32 µg/mL,> 32 µg/mL,> 32 µg/mL,20 µg/mL,> 32 µg/mL,24 µg/mL,> 32 µg/mL,16 µg/mL,> 32 µg/mL,> 32 µg/mL,> 32 µg/mL,MIC (Enterococcus faecium [20]): 8 µg/mL; MIC [21]: 32 µg/mL
CC(C)C[C@H](N)C(=O)NCCCC[C@H](NC(=O)[C@@H](N)CC(C)C)C(=O)N[C@@H](CCC(N)=O)C(=O)NCCCC[C@H](NC(=O)[C@H](CCC(N)=O)NC(=O)[C@H](CCCCNC(=O)[C@@H](N)CC(C)C)NC(=O)[C@@H](N)CC(C)C)C(=O)N[C@@H](Cc1ccccc1)C(=O)NCCCC[C@H](NC(=O)[C@H](Cc1ccccc1)NC(=O)[C@H](CCCCNC(=O)[C@H](CCC(N)=O)NC(=O)[C@H](CCCCNC(=O)[C@@H](N)CC(C)C)NC(=O)[C@@H](N)CC(C)C)NC(=O)[C@H](CCC(N)=O)NC(=O)[C@H](CCCCNC(=O)[C@@H](N)CC(C)C)NC(=O)[C@@H](N)CC(C)C)C(=O)N[C@@H](CCCCN)C(N)=O (I: H-LK(Leu)QK([Gln-LeuLys(Leu)])FKK-NH2 / II: H-LK(Leu)QK([Gln-LeuLys(Leu)])F; amide I:6-II:C),> 100 µg/mL,> 32 µg/mL,> 32 µg/mL,> 32 µg/mL,> 100 µg/mL,> 32 µg/mL,> 32 µg/mL,> 32 µg/mL,> 100 µg/mL,> 32 µg/mL,> 32 µg/mL,> 32 µg/mL,250 µg/mL,> 32 µg/mL,–,–,–,–,–,–,–
CC(C)C[C@H](N)C(=O)NC[C@H](NC(=O)[C@@H](N)CC(C)C)C(=O)N[C@@H](Cc1ccccc1)C(=O)NC[C@H](NC(=O)[C@H](Cc1ccccc1)NC(=O)[C@H](CNC(=O)[C@@H](N)CC(C)C)NC(=O)[C@@H](N)CC(C)C)C(=O)N1CCC[C@H]1C(=O)NC[C@H](NC(=O)[C@@H]1CCCN1C(=O)[C@H](CNC(=O)[C@H](Cc1ccccc1)NC(=O)[C@H](CNC(=O)[C@@H](N)CC(C)C)NC(=O)[C@@H](N)CC(C)C)NC(=O)[C@H](Cc1ccccc1)NC(=O)[C@H](CNC(=O)[C@@H](N)CC(C)C)NC(=O)[C@@H](N)CC(C)C)C(=O)N[C@@H](CCCCN)C(N)=O (I: H-L[Dap](Leu)F[Dap]([Phe-X1])P[Dap]K-NH2 / II: H-L[Dap](Leu)F[Dap]([Phe-X1])P; amide I:6-II:C),20 µg/mL,> 32 µg/mL,> 32 µg/mL,> 32 µg/mL,3.1 µg/mL,> 32 µg/mL,> 32 µg/mL,> 32 µg/mL,15 µg/mL,> 32 µg/mL,> 32 µg/mL,> 32 µg/mL,> 2000 µg/mL,> 32 µg/mL,–,–,–,–,–,–,–
CC(C)C[C@H](NC(=O)[C@H](CNC(=O)[C@@H](N)CC(C)C)NC(=O)[C@@H](N)CC(C)C)C(=O)NC[C@H](NC(=O)[C@H](CC(C)C)NC(=O)[C@H](CNC(=O)[C@@H](N)CC(C)C)NC(=O)[C@@H](N)CC(C)C)C(=O)N[C@@H](Cc1ccccc1)C(=O)NC[C@H](NC(=O)[C@H](Cc1ccccc1)NC(=O)[C@H](CNC(=O)[C@H](CC(C)C)NC(=O)[C@H](CNC(=O)[C@@H](N)CC(C)C)NC(=O)[C@@H](N)CC(C)C)NC(=O)[C@H](CC(C)C)NC(=O)[C@H](CNC(=O)[C@@H](N)CC(C)C)NC(=O)[C@@H](N)CC(C)C)C(=O)N[C@@H](CCCCN)C(N)=O (I: H-L[Dap](Leu)L[Dap]([Leu-X1])F[Dap]K-NH2 / II: H-L[Dap](Leu)L[Dap]([Leu-X1])F; amide I:6-II:C),18 µg/mL,> 32 µg/mL,> 32 µg/mL,> 32 µg/mL,2.9 µg/mL,> 32 µg/mL,> 32 µg/mL,> 32 µg/mL,3.9 µg/mL,> 32 µg/mL,> 32 µg/mL,> 32 µg/mL,> 2000 µg/mL,> 32 µg/mL,> 32 µg/mL,≥ 32 µg/mL,32 µg/mL,24 µg/mL,32 µg/mL,32 µg/mL,MIC (Enterococcus faecium [20]): > 32 µg/mL; MIC [21]: 24 µg/mL
CC1(C)S[C@@H]2[C@H](NC(=O)[C@H](N)c3ccccc3)C(=O)N2[C@H]1C(=O)O [AMPICILLIN],–,–,–,–,–,–,–,–,–,–,–,–,–,–,4 µg/mL,0.13 µg/mL,> 32 µg/mL,1.5 µg/mL,> 32 µg/mL,1 µg/mL,MIC (Enterococcus faecium [20]): > 32 µg/mL; MIC [21]: 1 µg/mL
